Test results from ChEMBL document CHEMBL1126544, “Synthesis and biological evaluation of MC 1357, a new 20-epi-23-oxa-1,25-dihydroxy-vitamin D3 analogue with potent non-classical effects” (Bioorg Med Chem Lett, 1993).

Tests used:
T-cell = assay: Concentration to inhibit T-cell activation in Murine MLR; format: functional, cell-based; conditions: Mus musculus
U-937 [1] = assay: Concentration to induce cell differentiation in U 937 cells; format: functional, cell-based; conditions: Homo sapiens
Rattus norvegicus = assay: Compound was evaluated for calciuric effect (urinary calcium excretion in rats) at a dose of 0.5 ug/kg/day was administered orally for 7 days: Calcium excretion in control rats receiving vehicle alone of 20 umol/day.; format: functional, Urine
U-937 [2] = assay: Concentration to inhibit cell proliferation in U 937 cells; format: functional, cell-based; conditions: Homo sapiens

| SMILES | IC50 (T-cell) [nM] | Concentration (U-937 [1]) [nM] | Ca2+ excretion (Rattus norvegicus) [µmol/day] | IC50 (U-937 [2]) [nM] |
| --- | --- | --- | --- | --- |
| C=C1/C(=C\C=C2/CCC[C@]3(C)[C@@H]([C@H](C)CCCC(C)(C)O)CC[C@@H]23)C[C@@H](O)C[C@@H]1O [CALCITRIOL] | 0.05 | 2 | 83 |  |
| C=C1/C(=C\C=C2/CCC[C@]3(C)[C@@H]([C@@H](C)COCCCC(C)(C)O)CC[C@@H]23)C[C@@H](O)C[C@@H]1O | 0.0006 | 0.001 | 49 | 0.01 |
